Results from the NIST ThermoML archive (doi:10.1021/acs.jced.7b01125).
± gives the expanded uncertainty stated by the source.

Experiment: xn = mol fraction of the nth substance listed
Settings: Gas, Buoyancy - hydrostatic balance with magnetic suspension - one sinker

[HH] [hydrogen] + C
Settings | mass density [kg/m3]
240.07 K, 999 kPa, x2 = 0.9 | 7.556 ± 0.047
240.07 K, 1000 kPa, x2 = 0.4997 | 4.558 ± 0.034
240.07 K, 1999 kPa, x2 = 0.9 | 15.591 ± 0.049
240.07 K, 2000 kPa, x2 = 0.4997 | 9.174 ± 0.034
240.07 K, 3001 kPa, x2 = 0.9 | 24.162 ± 0.052
240.07 K, 3002 kPa, x2 = 0.4997 | 13.857 ± 0.037
240.07 K, 4001 kPa, x2 = 0.9 | 33.3 ± 0.055
240.07 K, 4003 kPa, x2 = 0.4997 | 18.584 ± 0.039
240.07 K, 5000 kPa, x2 = 0.4997 | 23.326 ± 0.043
240.07 K, 5001 kPa, x2 = 0.9 | 43.067 ± 0.058
240.07 K, 6003 kPa, x2 = 0.4997 | 28.124 ± 0.048
240.07 K, 6003 kPa, x2 = 0.9 | 53.504 ± 0.062
240.07 K, 7000 kPa, x2 = 0.4997 | 32.918 ± 0.054
240.07 K, 7005 kPa, x2 = 0.9 | 64.62 ± 0.067
240.07 K, 8003 kPa, x2 = 0.4997 | 37.747 ± 0.061
240.07 K, 9002 kPa, x2 = 0.4997 | 42.553 ± 0.069
240.07 K, 10006 kPa, x2 = 0.4997 | 47.368 ± 0.077
240.07 K, 11006 kPa, x2 = 0.4997 | 52.137 ± 0.086
240.07 K, 11011 kPa, x2 = 0.9499 | 128.048 ± 0.085
240.07 K, 12005 kPa, x2 = 0.4997 | 56.857 ± 0.095
240.07 K, 12014 kPa, x2 = 0.9499 | 142.433 ± 0.083
240.07 K, 13003 kPa, x2 = 0.4997 | 61.522 ± 0.1
240.07 K, 13016 kPa, x2 = 0.9499 | 155.953 ± 0.081
240.07 K, 14011 kPa, x2 = 0.4997 | 66.173 ± 0.11
240.07 K, 14016 kPa, x2 = 0.9499 | 168.365 ± 0.078
240.07 K, 15002 kPa, x2 = 0.4997 | 70.674 ± 0.12
240.07 K, 15021 kPa, x2 = 0.9499 | 179.661 ± 0.075
240.07 K, 16013 kPa, x2 = 0.4997 | 75.179 ± 0.12
240.07 K, 16020 kPa, x2 = 0.9499 | 189.762 ± 0.072
240.07 K, 17008 kPa, x2 = 0.4997 | 79.535 ± 0.13
240.07 K, 17018 kPa, x2 = 0.9 | 179.188 ± 0.077
240.07 K, 17021 kPa, x2 = 0.9499 | 198.87 ± 0.07
240.07 K, 18016 kPa, x2 = 0.4997 | 83.857 ± 0.14
240.07 K, 18016 kPa, x2 = 0.9499 | 207.026 ± 0.069
240.07 K, 18030 kPa, x2 = 0.9 | 187.542 ± 0.075
240.07 K, 19008 kPa, x2 = 0.4997 | 88.009 ± 0.14
240.07 K, 19013 kPa, x2 = 0.9499 | 214.425 ± 0.068
240.07 K, 19032 kPa, x2 = 0.9 | 195.115 ± 0.074
240.07 K, 19589 kPa, x2 = 0.9 | 199.054 ± 0.074
240.07 K, 19703 kPa, x2 = 0.4997 | 90.858 ± 0.14
240.07 K, 19891 kPa, x2 = 0.9499 | 220.394 ± 0.067
240.08 K, 999 kPa, x2 = 0.9499 | 7.937 ± 0.049
240.08 K, 1998 kPa, x2 = 0.9499 | 16.447 ± 0.051
240.08 K, 3000 kPa, x2 = 0.9499 | 25.62 ± 0.055
240.08 K, 3999 kPa, x2 = 0.9499 | 35.505 ± 0.059
240.08 K, 5004 kPa, x2 = 0.9499 | 46.287 ± 0.063
240.08 K, 6000 kPa, x2 = 0.9499 | 57.87 ± 0.068
240.08 K, 7002 kPa, x2 = 0.9499 | 70.478 ± 0.073
240.08 K, 8004 kPa, x2 = 0.9499 | 84.026 ± 0.078
240.08 K, 8008 kPa, x2 = 0.9 | 76.371 ± 0.07
240.08 K, 9003 kPa, x2 = 0.9499 | 98.317 ± 0.082
240.08 K, 9004 kPa, x2 = 0.9 | 88.565 ± 0.074
240.08 K, 10004 kPa, x2 = 0.9 | 101.131 ± 0.077
240.08 K, 10007 kPa, x2 = 0.9499 | 113.159 ± 0.085
240.08 K, 11012 kPa, x2 = 0.9 | 113.893 ± 0.079
240.08 K, 12006 kPa, x2 = 0.9 | 126.282 ± 0.081
240.08 K, 13016 kPa, x2 = 0.9 | 138.41 ± 0.081
240.08 K, 14006 kPa, x2 = 0.9 | 149.671 ± 0.08
240.08 K, 15020 kPa, x2 = 0.9 | 160.417 ± 0.079
240.08 K, 16024 kPa, x2 = 0.9 | 170.25 ± 0.078
250.03 K, 1001 kPa, x2 = 0.4997 | 4.372 ± 0.033
250.03 K, 2000 kPa, x2 = 0.4997 | 8.784 ± 0.034
250.03 K, 2990 kPa, x2 = 0.4997 | 13.19 ± 0.036
250.03 K, 4000 kPa, x2 = 0.4997 | 17.721 ± 0.038
250.03 K, 5000 kPa, x2 = 0.4997 | 22.235 ± 0.041
250.03 K, 7001 kPa, x2 = 0.4997 | 31.315 ± 0.05
250.03 K, 8002 kPa, x2 = 0.4997 | 35.861 ± 0.056
250.04 K, 999 kPa, x2 = 0.9499 | 7.587 ± 0.047
250.04 K, 1999 kPa, x2 = 0.9499 | 15.652 ± 0.049
250.04 K, 3000 kPa, x2 = 0.9 | 22.884 ± 0.049
250.04 K, 3002 kPa, x2 = 0.9499 | 24.252 ± 0.052
250.04 K, 4000 kPa, x2 = 0.9 | 31.364 ± 0.052
250.04 K, 4006 kPa, x2 = 0.9499 | 33.422 ± 0.055
250.04 K, 5002 kPa, x2 = 0.9 | 40.328 ± 0.054
250.04 K, 5005 kPa, x2 = 0.9499 | 43.167 ± 0.058
250.04 K, 5999 kPa, x2 = 0.4997 | 26.765 ± 0.045
250.04 K, 6001 kPa, x2 = 0.9499 | 53.515 ± 0.062
250.04 K, 6004 kPa, x2 = 0.9 | 49.775 ± 0.057
250.04 K, 7002 kPa, x2 = 0.9 | 59.655 ± 0.06
250.04 K, 7002 kPa, x2 = 0.9499 | 64.575 ± 0.066
250.04 K, 8004 kPa, x2 = 0.9 | 70.009 ± 0.063
250.04 K, 9002 kPa, x2 = 0.4997 | 40.398 ± 0.062
250.04 K, 9006 kPa, x2 = 0.9499 | 88.515 ± 0.072
250.04 K, 9011 kPa, x2 = 0.9 | 80.795 ± 0.066
250.04 K, 10001 kPa, x2 = 0.4997 | 44.91 ± 0.069
250.04 K, 10014 kPa, x2 = 0.9 | 91.789 ± 0.068
250.04 K, 11004 kPa, x2 = 0.4997 | 49.405 ± 0.076
250.04 K, 11010 kPa, x2 = 0.9 | 102.827 ± 0.07
250.04 K, 12004 kPa, x2 = 0.4997 | 53.836 ± 0.084
250.04 K, 13005 kPa, x2 = 0.4997 | 58.27 ± 0.091
250.04 K, 14003 kPa, x2 = 0.4997 | 62.615 ± 0.098
250.04 K, 15009 kPa, x2 = 0.4997 | 66.921 ± 0.1
250.04 K, 16007 kPa, x2 = 0.4997 | 71.14 ± 0.11
250.04 K, 17008 kPa, x2 = 0.4997 | 75.293 ± 0.12
250.04 K, 18013 kPa, x2 = 0.4997 | 79.385 ± 0.12
250.04 K, 19258 kPa, x2 = 0.4997 | 84.34 ± 0.13
250.05 K, 1000 kPa, x2 = 0.9 | 7.23 ± 0.045
